Measured values from patent US20230242585A1, “IMMUNOMODULATORS” (Bristol-Myers Squibb Company, priority 2020, published 2023).
Starred links: 1 amine or outer side, 2 acyl side, 3 side chain; linkers in the order of their positions; H or OH if unused. Positions of bridges follow the written chain, without caps; N, C: chain ends. Non-standard residues stand in square brackets, D forms with d. Residues, ends and D or L forms follow the SMILES beside them. X28 = O=C([C@H](CCNC[C@H](O)[C@@H](O)[C@H](O[C@@H]1O[C@H](CO)[C@H](O)[C@H](O)[C@H]1O)[C@H](O)CO)N[*:1])[*:2]; X27 = O=C([C@H](CNC[C@H](O)[C@@H](O)[C@H](O[C@@H]1O[C@H](CO)[C@H](O)[C@H](O)[C@H]1O)[C@H](O)CO)N[*:1])[*:2]; X56 = O=C([C@H](CCNC[C@@H](O)[C@H](O)[C@@H](O)[C@@H](O)[C@H](O)CO)N[*:1])[*:2]; X49 = O=C([C@H](CNC[C@@H](O)[C@H](O)[C@@H](O)[C@@H](O)[C@H](O)CO)N[*:1])[*:2]; X41 = O=C([C@H](CCNC1[C@@H](O)[C@@H](O)[C@@H](O)[C@H](O)[C@H]1O)N[*:1])[*:2]; X40 = O=C([C@H](CNC1[C@@H](O)[C@@H](O)[C@@H](O)[C@H](O)[C@H]1O)N[*:1])[*:2]; X50 = O=C([C@H](CNC[C@@H](O)[C@@H](O)[C@H](O)[C@H](O)C(O)CO)N[*:1])[*:2]; X63 = O=C([C@H](CCNC[C@H](O)[C@@H](O)[C@@H](O)[C@H](O)CO)N[*:1])[*:2]; X11 = O=C([C@H](CNC[C@H](O)[C@@H](O)[C@@H](O)[C@H](O)CO)N[*:1])[*:2]; X35 = O=C([C@H](CNC[C@H](O)[C@H](O)[C@@H](O)[C@@H](O)CO)N[*:1])[*:2]; X59 = O=C([C@H](CCNC[C@H](O)[C@@H](O)[C@H](O)[C@H](O)CO)N[*:1])[*:2]; X58 = O=C([C@H](CNC[C@H](O)[C@@H](O)[C@H](O)[C@H](O)CO)N[*:1])[*:2]; Trp(1-CH2COOH) = N[C@@H](Cc1cn(CC(=O)O)c2ccccc12)C(=O)O; Hyp = O=C(O)[C@@H]1C[C@@H](O)CN1; NMeNle = CCCC[C@H](NC)C(=O)O; NMeA = CN[C@@H](C)C(=O)O; Dab = NCC[C@H](N)C(=O)O

The compounds below were run against T1, PD-1/PD-L1 (Homo sapiens, UniProt Q9NZQ7) (assay: PD-1/PD-L1 Homogenous Time-Resolved Fluorescence (HTRF) binding assay). Settings: PD-L1-His 10 nM, PD-1-Ig 20 nM.
T1 construct: TVMV protease site (linker) (C); made in house; host or cells: HEK293T cells
T1 sequence (Q9NZQ7 18-239): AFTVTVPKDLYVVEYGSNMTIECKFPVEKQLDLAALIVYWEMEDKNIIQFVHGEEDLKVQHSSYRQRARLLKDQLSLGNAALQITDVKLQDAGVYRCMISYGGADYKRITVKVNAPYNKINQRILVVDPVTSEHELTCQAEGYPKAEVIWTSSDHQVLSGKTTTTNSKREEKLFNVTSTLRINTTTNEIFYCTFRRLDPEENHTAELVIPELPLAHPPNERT
Procedure, shortened: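 Compounds preincubated 15 min with PD-L1-His (residues 18-239, 10 nM) in dPBS with 0.1% BSA, 0.05% Tween-20, then PD-1-Ig (residues 25-167, 20 nM) for 15 min. Eu-cryptate anti-Ig (1 nM) and APC anti-His (20 nM) equilibrated 30 min; 665/620 nm ratio read, IC50 derived.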

| SMILES | IC50 |
| --- | --- |
| CCCC[C@H]1C(=O)N(C)[C@@H](CCCC)C(=O)N[C@@H](CC(C)C)C(=O)N[C@H](C(=O)NCC(N)=O)CSCC(=O)N[C@@H](Cc2ccc(O)cc2)C(=O)N(C)[C@@H](C)C(=O)N[C@@H](CC(N)=O)C(=O)N2CCC[C@H]2C(=O)N[C@@H](CNC[C@H](O)[C@@H](O)[C@@H](O)[C@H](O)CO)C(=O)N[C@@H](CC(C)C)C(=O)N2C[C@H](O)C[C@H]2C(=O)N[C@@H](Cc2c[nH]c3ccccc23)C(=O)N[C@@H](CCNC[C@H](O)[C@@H](O)[C@@H](O)[C@H](O)CO)C(=O)N[C@@H](Cc2cn(CC(=O)O)c3ccccc23)C(=O)N1C [Example 2026] ({CH2CO}-Y[NMeA]NP[X11]L[Hyp]W[X63][Trp(1-CH2COOH)][NMeNle][NMeNle]LCG-NH2; thioether N-14) | 1.8 nM |
| CCCC[C@H]1C(=O)N(C)[C@@H](CCCC)C(=O)N[C@@H](CC(C)C)C(=O)N[C@H](C(=O)NCC(N)=O)CSCC(=O)N[C@@H](Cc2ccc(O)cc2)C(=O)N(C)[C@@H](C)C(=O)N[C@@H](CC(N)=O)C(=O)N2CCC[C@H]2C(=O)N[C@@H](CNC[C@H](O)[C@H](O)[C@@H](O)[C@@H](O)CO)C(=O)N[C@@H](CC(C)C)C(=O)N2C[C@H](O)C[C@H]2C(=O)N[C@@H](Cc2c[nH]c3ccccc23)C(=O)N[C@@H](CCN)C(=O)N[C@@H](Cc2cn(CC(=O)O)c3ccccc23)C(=O)N1C [Example 2027] ({CH2CO}-Y[NMeA]NP[X35]L[Hyp]W[Dab][Trp(1-CH2COOH)][NMeNle][NMeNle]LCG-NH2; thioether N-14) | 1 nM |
| CCCC[C@H]1C(=O)N(C)[C@@H](CCCC)C(=O)N[C@@H](CC(C)C)C(=O)N[C@H](C(=O)NCC(N)=O)CSCC(=O)N[C@@H](Cc2ccc(O)cc2)C(=O)N(C)[C@@H](C)C(=O)N[C@@H](CC(N)=O)C(=O)N2CCC[C@H]2C(=O)N[C@@H](CNC[C@H](O)[C@@H](O)[C@H](O[C@@H]2O[C@H](CO)[C@H](O)[C@H](O)[C@H]2O)[C@H](O)CO)C(=O)N[C@@H](CC(C)C)C(=O)N2C[C@H](O)C[C@H]2C(=O)N[C@@H](Cc2c[nH]c3ccccc23)C(=O)N[C@@H](CCNC[C@H](O)[C@@H](O)[C@H](O[C@@H]2O[C@H](CO)[C@H](O)[C@H](O)[C@H]2O)[C@H](O)CO)C(=O)N[C@@H](Cc2cn(CC(=O)O)c3ccccc23)C(=O)N1C [Example 2028] ({CH2CO}-Y[NMeA]NP[X27]L[Hyp]W[X28][Trp(1-CH2COOH)][NMeNle][NMeNle]LCG-NH2; thioether N-14) | 4.6 nM |
| CCCC[C@H]1C(=O)N(C)[C@@H](CCCC)C(=O)N[C@@H](CC(C)C)C(=O)N[C@H](C(=O)NCC(N)=O)CSCC(=O)N[C@@H](Cc2ccc(O)cc2)C(=O)N(C)[C@@H](C)C(=O)N[C@@H](CC(N)=O)C(=O)N2CCC[C@H]2C(=O)N[C@@H](CNC[C@@H](O)[C@H](O)[C@@H](O)[C@@H](O)[C@H](O)CO)C(=O)N[C@@H](CC(C)C)C(=O)N2C[C@H](O)C[C@H]2C(=O)N[C@@H](Cc2c[nH]c3ccccc23)C(=O)N[C@@H](CCNC[C@@H](O)[C@H](O)[C@@H](O)[C@@H](O)[C@H](O)CO)C(=O)N[C@@H](Cc2cn(CC(=O)O)c3ccccc23)C(=O)N1C [Example 2029] ({CH2CO}-Y[NMeA]NP[X49]L[Hyp]W[X56][Trp(1-CH2COOH)][NMeNle][NMeNle]LCG-NH2; thioether N-14) | 8.5 nM |
| CCCC[C@H]1C(=O)N(C)[C@@H](CCCC)C(=O)N[C@@H](CC(C)C)C(=O)N[C@H](C(=O)NCC(N)=O)CSCC(=O)N[C@@H](Cc2ccc(O)cc2)C(=O)N(C)[C@@H](C)C(=O)N[C@@H](CC(N)=O)C(=O)N2CCC[C@H]2C(=O)N[C@@H](CNC[C@@H](O)[C@@H](O)[C@H](O)[C@H](O)C(O)CO)C(=O)N[C@@H](CC(C)C)C(=O)N2C[C@H](O)C[C@H]2C(=O)N[C@@H](Cc2c[nH]c3ccccc23)C(=O)N[C@@H](CCN)C(=O)N[C@@H](Cc2cn(CC(=O)O)c3ccccc23)C(=O)N1C (stereo partly shown) [Example 2031] ({CH2CO}-Y[NMeA]NP[X50]L[Hyp]W[Dab][Trp(1-CH2COOH)][NMeNle][NMeNle]LCG-NH2; thioether N-14) | 9.1 nM |
| CCCC[C@H]1C(=O)N(C)[C@@H](CCCC)C(=O)N[C@@H](CC(C)C)C(=O)N[C@H](C(=O)NCC(N)=O)CSCC(=O)N[C@@H](Cc2ccc(O)cc2)C(=O)N(C)[C@@H](C)C(=O)N[C@@H](CC(N)=O)C(=O)N2CCC[C@H]2C(=O)N[C@@H](CNC[C@H](O)[C@@H](O)[C@H](O)[C@H](O)CO)C(=O)N[C@@H](CC(C)C)C(=O)N2C[C@H](O)C[C@H]2C(=O)N[C@@H](Cc2c[nH]c3ccccc23)C(=O)N[C@@H](CCNC[C@H](O)[C@@H](O)[C@H](O)[C@H](O)CO)C(=O)N[C@@H](Cc2cn(CC(=O)O)c3ccccc23)C(=O)N1C [Example 2032] ({CH2CO}-Y[NMeA]NP[X58]L[Hyp]W[X59][Trp(1-CH2COOH)][NMeNle][NMeNle]LCG-NH2; thioether N-14) | 5.3 nM |
| CCCC[C@H]1C(=O)N(C)[C@@H](CCCC)C(=O)N[C@@H](CC(C)C)C(=O)N[C@H](C(=O)NCC(N)=O)CSCC(=O)N[C@@H](Cc2ccc(O)cc2)C(=O)N(C)[C@@H](C)C(=O)N[C@@H](CC(N)=O)C(=O)N2CCC[C@H]2C(=O)N[C@@H](CNC2[C@@H](O)[C@@H](O)[C@@H](O)[C@H](O)[C@H]2O)C(=O)N[C@@H](CC(C)C)C(=O)N2C[C@H](O)C[C@H]2C(=O)N[C@@H](Cc2c[nH]c3ccccc23)C(=O)N[C@@H](CCNC2[C@@H](O)[C@@H](O)[C@@H](O)[C@H](O)[C@H]2O)C(=O)N[C@@H](Cc2cn(CC(=O)O)c3ccccc23)C(=O)N1C (stereo partly shown) [Example 2033] ({CH2CO}-Y[NMeA]NP[X40]L[Hyp]W[X41][Trp(1-CH2COOH)][NMeNle][NMeNle]LCG-NH2; thioether N-14) | 8.8 nM |
